Experimental data reported in patent US20210015793A1, “COMPOUNDS FOR TREATING CNS- AND NEURODEGENERATIVE DISEASES” (ETH ZURICH, priority 2018, published 2021).

How the values were obtained:
male B6 mice [1] = test: Aging-induced deterioration of male sperm quality in B6 mice; format: in vivo, mouse; settings: 18-month-old male B6 mice, 15 months treatment; for epididymal sperm count / sperm vitality (eosin-nigrosin staining) / total sperm motility: 8 mg/kg/d in drinking water
Experimental: Sperm count, and motility were determined by microscopic semen analysis of male B6 mice at an age of 3 months and 18 months similarly as described (Komori et al., Reprod. Med. Biol. 5, 195-200, 2006). Sperm cells were isolated from male B6 mice from the epididymis as described (Esposito et al., Proc. Nat. Acad. Sci. U.S.A. 101, 2993-2998, 2004). Sperm concentration was determined with a Neubauer hemocytometer. Percentage of sperm motility was determined with a 10 microl sample loaded onto a clean slide glass and covered with a coverslip. Sperm motility was evaluated under positive phase-contrast microscopy at a total magnification of ×400, and graded according to the WHO criteria (Komori et al., Reprod. Med. Biol. 5, 195-200, 2006), i.e. percentage of motile sperm cells was counted, and the percentage of progressive and not progressive sperm motility was determined. At least 300 spermatozoa were evaluated. Spermatozoa viability was determined by eosin-nigrosine staining technique. A drop of spermatozoa suspension in PBS was mixed with one drop of aqueous eosin Y solution (1%), and incubated for 15 s. Thereafter, two drops of 10% aqueous nigrosine solution were added and mixed. An aliquot of this mixture was transferred to a glass slide, a thin smear was made, and air dried. Stained spermatozoa were examined under a light microscope, and the percentage of live sperm cells was determined. Live sperm cells appear white whereas dead sperm cells are coloured pink. Treatment of male B6 mice with Compound-1 and Compound-1F (8 mg/kg/d in drinking water) was started at an age of 3 months and continued until the end of the observation period at an age of 18 months.

[2] = 28-day repeated oral dosing safety in German shepherd dogs; format: in vivo, dog; settings: for sedation / ECG: P-R interval, QRS interval and Q-T interval before vs after treatment / blood levels of AST, ALT, ALP, BUN and fasting blood glucose / hematologic parameters (Hb, HCT, RBCs, MCV, MCHC) before vs after treatment / total number of white blood cells / systolic and diastolic blood pressure / heart rate / tolerability: dogs; for ECG: P-R interval, QRS interval and Q-T interval before vs after treatment / blood levels of AST, ALT, ALP, BUN and fasting blood glucose / hematologic parameters (Hb, HCT, RBCs, MCV, MCHC) before vs after treatment / total number of white blood cells: once daily 60, 120 and 200 mg for 28 days; for systolic and diastolic blood pressure: once daily 60, 120 and 200 mg/d for 28 days; for heart rate: repeated oral dosing for 28 days; for tolerability: therapeutic dose range; for body weight: male and female dogs, once daily 20, 60, 120 and 200 mg/d for 28 days
Experimental: Dog serum concentrations of Compound-1, Compound-1F and Compound-4 were determined with serum isolated from the blood of German shepherd dogs (age: 8-9 months) taken at different time points (2 h, 4 h, 6 h, 8, 10 h, 24 h) after oral drug intake. The steady-state serum concentrations of Compound-1, Compound-1F and Compound-4 were determined in mice with blood isolated at the end of the study by cardiac puncture. Serum proteins were removed by acetonitrile precipitation, and compounds were extracted by chloroform before separation on an HPLC-C18 column (Poroshell 120 EC-C18, Agilent) with an HPLC system (Agilent 1100 Series) and detection at OD 280 nm, for Compound-1 and Compound-1F. Detection of Compound-4 was performed at OD 310 nm. The same extraction method was also used to determine Compound-1F in the serum of healthy human research participants. Dog hematology and biochemical parameters were determined by the Center of Applied Analytical and Veterinary Studies, Cairo, Egypt. ECG and blood pressure were measured by Dr. Mohamed Elsaed, Electrocardiography Unit, Faculty of Veterinary Medicine, Cairo University. The study was approved by the ethical committee of the Center of Applied and Veterinary Studies, Cairo, Egypt. Clinical laboratory parameters of human research participants were determined by the Rabaa El Adaweya Medical Central Hospital, Cairo, Egypt.

male B6 mice [3] = test: Aging-induced deterioration of male sperm quality in B6 mice; format: in vivo, mouse; settings: 18-month-old male B6 mice, 15 months treatment

SMILES | decrease in progressive sperm motility (male B6 mice [1]) | epididymal sperm count (male B6 mice [1]) | sperm vitality (eosin-nigrosin staining) (male B6 mice [1]) | total sperm motility (male B6 mice [1]) | sedation ([2]; daily dose of 120 mg/d) | sedation ([2]; highest dose of 200 mg) | ECG: P-R interval, QRS interval and Q-T interval before vs after treatment [2] | blood levels of AST, ALT, ALP, BUN and fasting blood glucose [2] | hematologic parameters (Hb, HCT, RBCs, MCV, MCHC) before vs after treatment [2] | total number of white blood cells [2] | systolic and diastolic blood pressure [2] | heart rate [2] | tolerability [2] | body weight [2] | aging-induced epididymal degeneration (H&E sections of cauda epididymis) (male B6 mice [3])
O=C(C1=C(O)C(c2ccccc2)N(c2ccc3c(c2)OCO3)C1=O)C1CC1 (stereo not drawn) [Compound-1, 1-(1,3-benzodioxol-5-yl)-4-(cyclopropane-carbonyl)-3-hydroxy-2-phenyl-2H-pyrrol-5-one] | largely prevented | retarded the aging-induced decrease in epididymal sperm count | maintained sperm vitality | improved total sperm motility | no sedation | showed sedation | not significantly different | did not significantly alter | not significantly different | not altered | did not significantly change systolic and diastolic blood pressure | did not significantly affect heart rate | excellent tolerability | did not significantly change body weight | prevented
O=C(C1=C(O)C(c2ccc(F)cc2)N(c2ccc3c(c2)OCO3)C1=O)C1CC1 (stereo not drawn) [Compound-1F, 1-(1,3-Benzodioxol-5-yl)-4-(cyclopropanecarbonyl)-2-(4-fluorophenyl)-3-hydroxy-2H-pyrrol-5-one] | largely prevented | retarded the aging-induced decrease in epididymal sperm count | maintained sperm vitality | improved total sperm motility | no sedation | showed sedation | not significantly different | did not significantly alter | not significantly different | not altered | did not significantly change systolic and diastolic blood pressure | did not significantly affect heart rate | excellent tolerability | did not significantly change body weight | prevented
